Measured values as given in PubChem BioAssay (NCI).
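Values below derive from 48-hour exposures of cells grown in 96-well plates, with endpoints linearly interpolated between the two concentrations bracketing the appropriate inhibition level. Here, GI50 denotes the concentration required for 50% inhibition of growth. TGI denotes the concentration required for complete inhibition of growth.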

Legend:
Assay in all cases: NCI-60 cell line screen, 48 h
COLO 205 colon = test system: COLO 205 colon
SR leukemia = test system: SR leukemia
HCC-2998 colon = test system: HCC-2998 colon
UACC-257 melanoma = test system: UACC-257 melanoma
MDA-MB-468 breast = test system: MDA-MB-468 breast
MDA-MB-435 = test system: MDA-MB-435
KM12 colon = test system: KM12 colon
SF-539 CNS = test system: SF-539 CNS
NCI-H522 lung = test system: NCI-H522 lung
SNB-19 CNS = test system: SNB-19 CNS
OVCAR-4 ovarian = test system: OVCAR-4 ovarian
BT-549 breast = test system: BT-549 breast
NCI-H226 lung = test system: NCI-H226 lung
SK-MEL-2 melanoma = test system: SK-MEL-2 melanoma
NCI-H460 lung = test system: NCI-H460 lung
SK-MEL-5 melanoma = test system: SK-MEL-5 melanoma
T-47D breast = test system: T-47D breast
DU-145 prostate = test system: DU-145 prostate
PC-3 prostate = test system: PC-3 prostate
OVCAR-5 ovarian = test system: OVCAR-5 ovarian
M14 melanoma = test system: M14 melanoma
SF-295 CNS = test system: SF-295 CNS
NCI-H23 lung = test system: NCI-H23 lung
RPMI-8226 leukemia = test system: RPMI-8226 leukemia
SNB-75 CNS = test system: SNB-75 CNS
UACC-62 melanoma = test system: UACC-62 melanoma
OVCAR-3 ovarian = test system: OVCAR-3 ovarian
OVCAR-8 ovarian = test system: OVCAR-8 ovarian
HL-60(TB) leukemia = test system: HL-60(TB) leukemia
U251 CNS = test system: U251 CNS
K-562 leukemia = test system: K-562 leukemia
ACHN renal = test system: ACHN renal
RXF 393 renal = test system: RXF 393 renal
MALME-3M melanoma = test system: MALME-3M melanoma
CCRF-CEM leukemia = test system: CCRF-CEM leukemia
HOP-62 NSCLC = test system: HOP-62 NSCLC
HCT-116 colon = test system: HCT-116 colon
A498 renal = test system: A498 renal
A549 NSCLC = test system: A549 NSCLC
UO-31 renal = test system: UO-31 renal
HOP-92 NSCLC = test system: HOP-92 NSCLC
HT29 colon = test system: HT29 colon
NCI/ADR-RES ovarian = test system: NCI/ADR-RES ovarian
HCT-15 colon = test system: HCT-15 colon
MDA-MB-231 breast = test system: MDA-MB-231 breast
TK-10 renal = test system: TK-10 renal
EKVX NSCLC = test system: EKVX NSCLC
SK-MEL-28 melanoma = test system: SK-MEL-28 melanoma
SF-268 CNS = test system: SF-268 CNS
MCF7 breast = test system: MCF7 breast
HS 578T breast = test system: HS 578T breast
SK-OV-3 ovarian = test system: SK-OV-3 ovarian
MOLT-4 leukemia = test system: MOLT-4 leukemia
CAKI-1 renal = test system: CAKI-1 renal
IGROV1 ovarian = test system: IGROV1 ovarian
SN12C renal = test system: SN12C renal
SW-620 colon = test system: SW-620 colon
786-0 renal = test system: 786-0 renal
LOX IMVI melanoma = test system: LOX IMVI melanoma

Q: How did the GI50 (COLO 205 colon) turn out when `CCCCSc1nc(Nc2ccc(/C(C)=N/NC(N)=S)cc2)c(C#N)c(-c2ccc(OC)cc2)n1` was run?
A: > 100 µM

Q: And the TGI (COLO 205 colon)?
A: > 100 µM

Q: And the GI50 (SR leukemia)?
A: 57.1 µM

Q: What about the TGI (SR leukemia) of the same compound?
A: > 100 µM

Q: And the GI50 (HCC-2998 colon)?
A: 78.4 µM

Q: And the TGI (HCC-2998 colon)?
A: > 100 µM

Q: What about the GI50 (UACC-257 melanoma) of the same compound?
A: > 100 µM

Q: What about the TGI (UACC-257 melanoma) of the same compound?
A: > 100 µM

Q: And the GI50 (MDA-MB-468 breast)?
A: 18.1 µM

Q: And the TGI (MDA-MB-468 breast)?
A: 49.1 µM

Q: What about the GI50 (MDA-MB-435) of the same compound?
A: 36.9 µM

Q: And the TGI (MDA-MB-435)?
A: > 100 µM

Q: What about the GI50 (KM12 colon) of the same compound?
A: > 100 µM

Q: What about the TGI (KM12 colon) of the same compound?
A: > 100 µM

Q: What about the GI50 (SF-539 CNS) of the same compound?
A: 3.14 µM

Q: And the TGI (SF-539 CNS)?
A: 12.8 µM

Q: And the GI50 (NCI-H522 lung)?
A: 13.9 µM

Q: What about the TGI (NCI-H522 lung) of the same compound?
A: 28.6 µM

Q: What about the GI50 (SNB-19 CNS) of the same compound?
A: 14.3 µM

Q: And the TGI (SNB-19 CNS)?
A: 27.3 µM

Q: What about the GI50 (OVCAR-4 ovarian) of the same compound?
A: 6.45 µM

Q: And the TGI (OVCAR-4 ovarian)?
A: 62.4 µM

Q: And the GI50 (BT-549 breast)?
A: 6.55 µM

Q: What about the TGI (BT-549 breast) of the same compound?
A: 26.9 µM

Q: And the GI50 (NCI-H226 lung)?
A: 11.9 µM

Q: And the TGI (NCI-H226 lung)?
A: 27.5 µM

Q: And the GI50 (SK-MEL-2 melanoma)?
A: 26.3 µM

Q: And the TGI (SK-MEL-2 melanoma)?
A: 85.4 µM

Q: And the GI50 (NCI-H460 lung)?
A: 9.33 µM

Q: And the TGI (NCI-H460 lung)?
A: 31.1 µM

Q: What about the GI50 (SK-MEL-5 melanoma) of the same compound?
A: 3.61 µM

Q: And the TGI (SK-MEL-5 melanoma)?
A: 17 µM

Q: What about the GI50 (T-47D breast) of the same compound?
A: 12.5 µM

Q: What about the TGI (T-47D breast) of the same compound?
A: 36.7 µM

Q: And the GI50 (DU-145 prostate)?
A: 10.2 µM

Q: What about the TGI (DU-145 prostate) of the same compound?
A: > 100 µM

Q: What about the GI50 (PC-3 prostate) of the same compound?
A: > 100 µM

Q: And the TGI (PC-3 prostate)?
A: > 100 µM

Q: And the GI50 (OVCAR-5 ovarian)?
A: 28.1 µM

Q: What about the TGI (OVCAR-5 ovarian) of the same compound?
A: 93.9 µM

Q: And the GI50 (M14 melanoma)?
A: 8.52 µM

Q: What about the TGI (M14 melanoma) of the same compound?
A: > 100 µM

Q: And the GI50 (SF-295 CNS)?
A: 10.1 µM

Q: What about the TGI (SF-295 CNS) of the same compound?
A: 22.6 µM

Q: And the GI50 (NCI-H23 lung)?
A: 6.46 µM

Q: And the TGI (NCI-H23 lung)?
A: 19 µM

Q: What about the GI50 (RPMI-8226 leukemia) of the same compound?
A: 45.7 µM

Q: What about the TGI (RPMI-8226 leukemia) of the same compound?
A: > 100 µM

Q: And the GI50 (SNB-75 CNS)?
A: 10.4 µM

Q: What about the TGI (SNB-75 CNS) of the same compound?
A: 78.3 µM

Q: What about the GI50 (UACC-62 melanoma) of the same compound?
A: 15.6 µM

Q: What about the TGI (UACC-62 melanoma) of the same compound?
A: 34.1 µM

Q: What about the GI50 (OVCAR-3 ovarian) of the same compound?
A: 21.5 µM

Q: And the TGI (OVCAR-3 ovarian)?
A: 44.3 µM

Q: What about the GI50 (OVCAR-8 ovarian) of the same compound?
A: 10.8 µM

Q: What about the TGI (OVCAR-8 ovarian) of the same compound?
A: 24 µM

Q: What about the GI50 (HL-60(TB) leukemia) of the same compound?
A: > 100 µM

Q: What about the TGI (HL-60(TB) leukemia) of the same compound?
A: > 100 µM

Q: And the GI50 (U251 CNS)?
A: 6.88 µM

Q: And the TGI (U251 CNS)?
A: 19.9 µM

Q: And the GI50 (K-562 leukemia)?
A: > 100 µM

Q: And the TGI (K-562 leukemia)?
A: > 100 µM

Q: And the GI50 (ACHN renal)?
A: 15.3 µM

Q: What about the TGI (ACHN renal) of the same compound?
A: 28.5 µM

Q: What about the GI50 (RXF 393 renal) of the same compound?
A: 5.2 µM

Q: What about the TGI (RXF 393 renal) of the same compound?
A: 18.1 µM

Q: What about the GI50 (MALME-3M melanoma) of the same compound?
A: 5.85 µM

Q: What about the TGI (MALME-3M melanoma) of the same compound?
A: 20 µM

Q: What about the GI50 (CCRF-CEM leukemia) of the same compound?
A: > 100 µM

Q: And the TGI (CCRF-CEM leukemia)?
A: > 100 µM

Q: What about the GI50 (HOP-62 NSCLC) of the same compound?
A: 15.6 µM

Q: What about the TGI (HOP-62 NSCLC) of the same compound?
A: 30.1 µM

Q: What about the GI50 (HCT-116 colon) of the same compound?
A: 6.79 µM

Q: And the TGI (HCT-116 colon)?
A: 30 µM

Q: And the GI50 (A498 renal)?
A: 10.6 µM

Q: And the TGI (A498 renal)?
A: 22.4 µM

Q: What about the GI50 (A549 NSCLC) of the same compound?
A: 16.5 µM

Q: What about the TGI (A549 NSCLC) of the same compound?
A: 40.9 µM

Q: What about the GI50 (UO-31 renal) of the same compound?
A: 2.81 µM

Q: What about the TGI (UO-31 renal) of the same compound?
A: 18.6 µM

Q: What about the GI50 (HOP-92 NSCLC) of the same compound?
A: 5.36 µM

Q: And the TGI (HOP-92 NSCLC)?
A: 21.1 µM

Q: What about the GI50 (HT29 colon) of the same compound?
A: > 100 µM

Q: What about the TGI (HT29 colon) of the same compound?
A: > 100 µM

Q: And the GI50 (NCI/ADR-RES ovarian)?
A: 5.76 µM

Q: And the TGI (NCI/ADR-RES ovarian)?
A: > 100 µM

Q: And the GI50 (HCT-15 colon)?
A: > 100 µM

Q: And the TGI (HCT-15 colon)?
A: > 100 µM

Q: And the GI50 (MDA-MB-231 breast)?
A: 2.27 µM

Q: What about the TGI (MDA-MB-231 breast) of the same compound?
A: 8.21 µM

Q: And the GI50 (TK-10 renal)?
A: 13.8 µM

Q: And the TGI (TK-10 renal)?
A: 27.4 µM

Q: What about the GI50 (EKVX NSCLC) of the same compound?
A: 56.4 µM

Q: And the TGI (EKVX NSCLC)?
A: > 100 µM

Q: And the GI50 (SK-MEL-28 melanoma)?
A: 35.8 µM

Q: What about the TGI (SK-MEL-28 melanoma) of the same compound?
A: > 100 µM

Q: What about the GI50 (SF-268 CNS) of the same compound?
A: 26 µM

Q: What about the TGI (SF-268 CNS) of the same compound?
A: > 100 µM

Q: And the GI50 (MCF7 breast)?
A: 17.1 µM

Q: And the TGI (MCF7 breast)?
A: > 100 µM

Q: And the GI50 (HS 578T breast)?
A: 2.78 µM

Q: What about the TGI (HS 578T breast) of the same compound?
A: 16.4 µM

Q: What about the GI50 (SK-OV-3 ovarian) of the same compound?
A: 18 µM

Q: What about the TGI (SK-OV-3 ovarian) of the same compound?
A: 32.1 µM

Q: And the GI50 (MOLT-4 leukemia)?
A: > 100 µM

Q: What about the TGI (MOLT-4 leukemia) of the same compound?
A: > 100 µM

Q: And the GI50 (CAKI-1 renal)?
A: 18.3 µM

Q: What about the TGI (CAKI-1 renal) of the same compound?
A: 54.1 µM

Q: What about the GI50 (IGROV1 ovarian) of the same compound?
A: 19.5 µM

Q: And the TGI (IGROV1 ovarian)?
A: 40 µM

Q: And the GI50 (SN12C renal)?
A: 18.7 µM

Q: What about the TGI (SN12C renal) of the same compound?
A: 37 µM

Q: What about the GI50 (SW-620 colon) of the same compound?
A: > 100 µM

Q: What about the TGI (SW-620 colon) of the same compound?
A: > 100 µM

Q: And the GI50 (786-0 renal)?
A: 3.07 µM

Q: And the TGI (786-0 renal)?
A: 10.9 µM

Q: What about the GI50 (LOX IMVI melanoma) of the same compound?
A: 3.9 µM

Q: What about the TGI (LOX IMVI melanoma) of the same compound?
A: 17.9 µM
